{
  "source": "ChEMBL document CHEMBL1134730",
  "about": "“Synthesis and biological evaluation of didemnin photoaffinity analogues” (Bioorg Med Chem Lett, 2001)",
  "assay_type_in_all_cases": "functional",
  "key": {"[1]": {"test": "The compound was evaluated for toxicity in NCI-60 tumor cells.", "conditions": "Homo sapiens"}, "[2]": {"test": "The compound was evaluated for total growth inhibition in NCI-60 tumor cells.", "conditions": "Homo sapiens"}, "[3]": {"test": "The compound was evaluated for growth inhibition in NCI-60 tumor cells.", "conditions": "Homo sapiens"}, "[4]": {"test": "The compound was evaluated for inhibition of protein biosynthesis."}},
  "note": "*1 amine or outer side, *2 acyl side, *3 side chain or, on linkers, in order; H or OH if unused. Where a SMILES comes first, the peptide text is derived from it. Bridges are numbered along the chain shown (N, C = ends). [ ]: non-standard residue; d: D form. The star is where a group is joined. ξ: configuration not given here. X1 = CC[C@H](C)[C@@H](N[*:1])[C@@H](O)CC(=O)O[C@H](C(=O)[C@H](C)C(=O)[*:2])C(C)C; Benzoyl(4-benzoyl) = O=C(c1ccccc1)c1ccc(C(=O)*)cc1; NMeY = CN[C@@H](Cc1ccc(O)cc1)C(=O)O; dNMeL = CN[C@H](CC(C)C)C(=O)O; Ahx = NCCCCCC(=O)O; ξP = O=C(O)C1CCCN1",
  "data": [
    {"molecule": "CC[C@H](C)[C@H]1NC(=O)[C@@H](NC(=O)[C@@H](CC(C)C)N(C)C(=O)CNC(=O)c2ccc(C(=O)c3ccccc3)cc2)[C@@H](C)OC(=O)[C@H](Cc2ccc(OC)cc2)N(C)C(=O)C2CCCN2C(=O)[C@H](CC(C)C)NC(=O)[C@@H](C)C(=O)[C@H](C(C)C)OC(=O)C[C@@H]1O", "note": "(stereo partly specified) ({Benzoyl(4-benzoyl)}-G[dNMeL]T[X1]L[ξP][NMeY](Me); ester 3-C)", "values": [
      {"measurement": "LC50", "setting": "[1]", "result": 23, "unit": "µM"},
      {"measurement": "TGI", "setting": "[2]", "result": 2, "unit": "µM"},
      {"measurement": "GI50", "setting": "[3]", "result": 0.013, "unit": "µM"},
      {"measurement": "IC50", "setting": "[4]", "result": 4.5, "unit": "µM"}
    ]},
    {"molecule": "CC[C@H](C)[C@H]1NC(=O)[C@@H](NC(=O)[C@@H](CC(C)C)N(C)C(=O)CCCCCNC(=O)c2ccc(C(=O)c3ccccc3)cc2)[C@@H](C)OC(=O)[C@H](Cc2ccc(OC)cc2)N(C)C(=O)C2CCCN2C(=O)[C@H](CC(C)C)NC(=O)[C@@H](C)C(=O)[C@H](C(C)C)OC(=O)C[C@@H]1O", "note": "(stereo partly specified) ({Benzoyl(4-benzoyl)-Ahx}-[dNMeL]T[X1]L[ξP][NMeY](Me); ester 2-C)", "values": [
      {"measurement": "LC50", "setting": "[1]", "result": 19, "unit": "µM"},
      {"measurement": "TGI", "setting": "[2]", "result": 21, "unit": "µM"},
      {"measurement": "GI50", "setting": "[3]", "result": 0.0043, "unit": "µM"},
      {"measurement": "IC50", "setting": "[4]", "result": 24, "unit": "µM"}
    ]},
    {"molecule": "CC[C@H](C)[C@H]1NC(=O)[C@@H](NC(=O)[C@@H](CC(C)C)N(C)C(=O)c2ccc(C(=O)c3ccccc3)cc2)[C@@H](C)OC(=O)[C@H](Cc2ccc(OC)cc2)N(C)C(=O)C2CCCN2C(=O)[C@H](CC(C)C)NC(=O)[C@@H](C)C(=O)[C@H](C(C)C)OC(=O)C[C@@H]1O", "note": "(stereo partly specified) ({Benzoyl(4-benzoyl)}-[dNMeL]T[X1]L[ξP][NMeY](Me); ester 2-C)", "values": [
      {"measurement": "LC50", "setting": "[1]", "result": 15, "unit": "µM"},
      {"measurement": "TGI", "setting": "[2]", "result": 0.35, "unit": "µM"},
      {"measurement": "GI50", "setting": "[3]", "result": 0.003, "unit": "µM"},
      {"measurement": "IC50", "setting": "[4]", "result": 4, "unit": "µM"}
    ]},
    {"molecule": "CC[C@H](C)[C@H]1NC(=O)[C@@H](NC(=O)[C@@H](CC(C)C)N(C)C(=O)CCCCCNC(=O)CCCCCNC(=O)c2ccc(C(=O)c3ccccc3)cc2)[C@@H](C)OC(=O)[C@H](Cc2ccc(OC)cc2)N(C)C(=O)C2CCCN2C(=O)[C@H](CC(C)C)NC(=O)[C@@H](C)C(=O)[C@H](C(C)C)OC(=O)C[C@@H]1O", "note": "(stereo partly specified)", "values": [
      {"measurement": "LC50", "setting": "[1]", "result": 48, "unit": "µM"},
      {"measurement": "TGI", "setting": "[2]", "result": 5, "unit": "µM"},
      {"measurement": "GI50", "setting": "[3]", "result": 0.017, "unit": "µM"},
      {"measurement": "IC50", "setting": "[4]", "result": 19, "unit": "µM"}
    ]}
  ]
}
